Results: patent US20050003388A1, “Calcium independent phospholipase A2upsilon polynucleotides and polypeptides and methods therefor” (priority 2000, published 2005)

Columns and labels:
[1] = test system: myocardial cytosolic and membrane-associated iPLA2; conditions: irreversible mechanism-based inhibitor; Hazen et al. 1991, Zupan et al., Gross et al. 1993; cited from earlier work
[2] = molecular target: T1, calcium-facilitated phospholipase A2γ (Homo sapiens, UniProt Q9UP65); conditions: at <50 μM [BEL]; Jenkins et al. 2002; cited from earlier work
T1 sequence (Q9UP65 1-541): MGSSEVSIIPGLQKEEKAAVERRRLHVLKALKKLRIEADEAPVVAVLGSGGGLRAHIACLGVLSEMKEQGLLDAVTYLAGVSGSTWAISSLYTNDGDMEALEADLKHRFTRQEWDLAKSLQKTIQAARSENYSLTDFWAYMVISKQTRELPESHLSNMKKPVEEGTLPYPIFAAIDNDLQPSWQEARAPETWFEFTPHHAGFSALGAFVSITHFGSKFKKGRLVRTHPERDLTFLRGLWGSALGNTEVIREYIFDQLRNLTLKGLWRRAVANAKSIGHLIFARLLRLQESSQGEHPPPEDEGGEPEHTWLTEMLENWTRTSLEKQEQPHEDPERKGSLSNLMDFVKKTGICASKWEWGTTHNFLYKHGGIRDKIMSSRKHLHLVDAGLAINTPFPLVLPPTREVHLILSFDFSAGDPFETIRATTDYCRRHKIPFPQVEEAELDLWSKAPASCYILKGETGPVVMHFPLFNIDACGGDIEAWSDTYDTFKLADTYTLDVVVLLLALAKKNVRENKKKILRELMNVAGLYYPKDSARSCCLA

human iPLA2γ = molecular target: T2, human iPLA2γ (Homo sapiens, UniProt Q9NP80); test: Inhibition by BEL of phospholipase A2 activity of iPLA2γ in membrane fractions of infected Sf9 cells; type: biochemical
T2 sequence (Q9NP80 1-782): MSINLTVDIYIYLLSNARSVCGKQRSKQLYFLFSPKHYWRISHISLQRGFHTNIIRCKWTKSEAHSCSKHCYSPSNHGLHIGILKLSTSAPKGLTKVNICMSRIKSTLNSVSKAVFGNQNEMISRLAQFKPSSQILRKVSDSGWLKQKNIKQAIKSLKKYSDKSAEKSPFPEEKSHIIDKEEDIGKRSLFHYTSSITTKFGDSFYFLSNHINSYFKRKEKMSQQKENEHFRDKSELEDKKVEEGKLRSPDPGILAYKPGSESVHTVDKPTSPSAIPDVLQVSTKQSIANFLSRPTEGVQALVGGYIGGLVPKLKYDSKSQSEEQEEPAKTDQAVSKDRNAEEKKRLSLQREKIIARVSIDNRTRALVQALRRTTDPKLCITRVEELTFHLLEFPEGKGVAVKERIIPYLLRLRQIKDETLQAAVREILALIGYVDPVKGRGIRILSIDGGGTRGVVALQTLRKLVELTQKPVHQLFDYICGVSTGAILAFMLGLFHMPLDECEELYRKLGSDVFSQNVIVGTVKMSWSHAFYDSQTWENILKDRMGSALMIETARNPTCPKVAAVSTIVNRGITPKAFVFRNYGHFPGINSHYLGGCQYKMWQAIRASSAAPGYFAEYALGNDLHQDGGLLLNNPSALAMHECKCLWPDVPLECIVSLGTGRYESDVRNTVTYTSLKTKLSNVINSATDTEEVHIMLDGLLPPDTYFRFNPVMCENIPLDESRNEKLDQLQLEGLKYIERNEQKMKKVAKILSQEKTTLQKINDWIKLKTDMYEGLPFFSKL
Protocol: Briefly, Sf9 cells were infected with either wild-type baculovirus or baculovirus encoding human iPLA2γ, as described in Example 5. Cytosolic and membrane fractions of the infected Sf9 cells were prepared as described above. Phospholipase A2 activity was assessed as follows. Membrane fractions from control cells or cells expressing iPLA2γ were incubated with 40 μM L-α-1-palmitoyl-2-[1-^14C]oleoyl phosphatidylcholine in 100 mM Tris-Hac, pH 8.0, containing 1 mM EGTA at 37° C. Aliquots of the reaction were removed at the indicated times, and the amount of [1-^14C]oleic acid released was quantified as described above. Specifically, the release of sn-2-fatty acid from glycero-3-phosphocholine was determined as a function of time.
Briefly, Sf9 cells were infected with either wild-type baculovirus or baculovirus encoding human iPLA2γ, as described in Example 5. Membrane fractions of the infected Sf9 cells were prepared as described above, and then incubated for three minutes at room temperature in 100 mM Tris-HAc, pH 8.0, containing lmM EGTA, with varying concentrations of BEL, or ethanol vehicle, as indicated along the x-axis. L-α-1-palmitoyl-2-[1-^14C]oleoyl phosphatidylcholine (40 μM final concentration) in ethanol was then added to each reaction, followed by incubation at 37° C. for two minutes. Released [1-^14C]oleic acid was quantitated as described above. […]

With `O=C1OC(=CBr)CCC1c1cccc2ccccc12` (stereo not shown) [BEL, (E)-6-(bromomethylene)-3-(1-napthalenyl)-2H-tetrahydropyran-2-one] as the compound, how does the “concentrations giving nearly complete inhibition of myocardial cytosolic membrane-associated iPLA2” value [1] read?
Its value is 2 to 5 µM.

And the “inhibition of calcium-facilitated phospholipase A2γ by BEL” value [2]?
Its value is “not inhibited”.

And the IC50 (human iPLA2γ)?
Its IC50 is ~3 µM.

And the inhibition at 5 µM (human iPLA2γ; 5 μM BEL, preincubation of membranes for three minutes prior to addition of substrate (40 μM POPC), 37° C. two minutes)?
Its inhibition at 5 µM is ~70%.
